From PMC10781691, “Vertical pathway inhibition of receptor tyrosine kinases and BAD with synergistic efficacy in triple negative breast cancer” (NPJ Precision Oncology, 2024)
Like-named read-outs stand apart in the source and are kept apart here.

Experiments:
[1] = tested on: BAD phosphorylation at Ser99; experiment: Western blot of BAD phosphorylation at Ser99 in TNBC cells; type: cell-based, human; conditions: MDA-MB-231 and BT549 cells; for level of pBADSer99/BAD: 1 μM
[2] = tested on: 4T1-luciferase homografts; experiment: Orthotopic syngeneic homograft, combination study; type: in vivo; conditions: BALB/c mice, day 16; NCK 20 mg/kg, OSI 50 mg/kg, CRI 50 mg/kg
Procedure: In vivo bioluminescent imaging was performed to determine the incidence and metastatic burden of luciferase-labeled 4T1 cells. Mice were injected i.p. with 10 mg/ml of D-luciferin (Gold Biotechnology, MO, USA) and imaged using a PerkinElmer IVIS Spectrum system. PDX were generated as previously described by transplanting fresh fragments orthotopically into 8-week-old female nonobese diabetic (NOD)/severe combined immunodeficient (SCID) mice (Beijing Vital River Laboratory Animal Technology Co., Beijing, China) (P1, passage 1)[40]. The P1 xenografts were then fragmented, digested into single-cell suspension and implanted into mammary fat pad (100 μL PBS containing growth factor reduced 50% Matrigel) of NOD/SCID mice. Once orthotopic xenografts reached an approximate size of 100 mm^3, the mice were randomly divided into three groups (n = 8) for single drug studies and six groups (n = 6) for combination studies and Kaplan-Meier (KM) analyses. […] Animal body weight and xenograft size were measured daily using an electronic balance and a digital caliper, respectively. Xenograft volume (mm^3) was calculated by using the formula: 0.52 × length × [width]^2. Complete response (CR) was achieved if the average xenograft volume for the treatment group was unable to be determined for two or more consecutive measurements. Partial response (PR) was achieved if the average xenograft volume reduced to <50 mm^3 for two or more consecutive measurements. After 3-week drug treatment, all mice were sacrificed by CO2 inhalation. Tumor and vital organs were weighed and isolated for further analysis. IHC analysis of xenograft histology sections and quantitative polymerase chain reaction (qPCR) were performed as previously described. […]
model was measured every day and calculated by using the formula: 0.52 × length × [width]2.
The animal weight of each treatment group is indicated. […]
treatment group after sacrifice on the 15th day of treatment. (C) Bioluminescence of homografts from mice orthotopically implanted with 4T1-luciferase cells. (D) Resected homografts from each treatment group.
(F) Histological analyses and IRS scoring of pBAD at Ser99, BAD, MKI67, and TUNEL staining in homografts. Scale bar, 20 µm. […]
kidney weights (%, organ body index) and colon length of BALB/c mice administrated with […]
represent means ± SD ( n=6).*P < 0.05, **P < 0.01, and ***P < 0.001.

USTC-0 PDX = experiment: TNBC patient-derived xenograft; type: in vivo, NOD/SCID mice; conditions: for survival of PDX-bearing mice / Median survival: USTC-0; for survival of PDX-bearing mice: single agents vs vehicle, combinations vs OSI-930 or Crizotinib alone; for Median survival: vehicle 25.5
Procedure: (§1) The effect of drug treatments on two patient-derived xenograft (PDX) models of TNBC, USTC-0 and USTC-1 were next examined. The use of the USTC-1 PDX was previously reported.
(§2) In vivo bioluminescent imaging was performed to determine the incidence and metastatic burden of luciferase-labeled 4T1 cells. Mice were injected i.p. with 10 mg/ml of D-luciferin (Gold Biotechnology, MO, USA) and imaged using a PerkinElmer IVIS Spectrum system. PDX were generated as previously described by transplanting fresh fragments orthotopically into 8-week-old female nonobese diabetic (NOD)/severe combined immunodeficient (SCID) mice (Beijing Vital River Laboratory Animal Technology Co., Beijing, China) (P1, passage 1)[40]. The P1 xenografts were then fragmented, digested into single-cell suspension and implanted into mammary fat pad (100 μL PBS containing growth factor reduced 50% Matrigel) of NOD/SCID mice. Once orthotopic xenografts reached an approximate size of 100 mm^3, the mice were randomly divided into three groups (n = 8) for single drug studies and six groups (n = 6) for combination studies and Kaplan-Meier (KM) analyses. […] Animal body weight and xenograft size were measured daily using an electronic balance and a digital caliper, respectively. Xenograft volume (mm^3) was calculated by using the formula: 0.52 × length × [width]^2. Complete response (CR) was achieved if the average xenograft volume for the treatment group was unable to be determined for two or more consecutive measurements. Partial response (PR) was achieved if the average xenograft volume reduced to <50 mm^3 for two or more consecutive measurements. After 3-week drug treatment, all mice were sacrificed by CO2 inhalation. Tumor and vital organs were weighed and isolated for further analysis. IHC analysis of xenograft histology sections and quantitative polymerase chain reaction (qPCR) were performed as previously described. […] For PDX, xenograft growth was monitored daily by measurement of the xenograft volume until mice humane endpoint ( ~ 1000 mm^3).

USTC-1 PDX = experiment: TNBC patient-derived xenograft; type: in vivo, NOD/SCID mice; conditions: for Median survival: USTC-1, vehicle 22.5
Procedure: as §1, §2

[3] = tested on: MAPK and PI3K/AKT pathways; experiment: Western blot of PI3K/AKT and MAPK pathway proteins; type: cell-based, human
Procedure: Next, western blot analyses were performed to determine potential alteration in expression or activity of the target proteins along the MAPK and PI3K/AKT pathways. […] . […] CI analysis method.

MDA-MB-231 cells [4] = tested on: MDA-MB-231 cells
MDA-MB-231 xenografts = experiment: Orthotopic xenograft, combination study; type: in vivo; conditions: Balb/c-nude mice, day 22; NCK 20 mg/kg, OSI 50 mg/kg, CRI 50 mg/kg
MDA-MB-231 cells [5] = experiment: Foci formation (crystal violet); conditions: MDA-MB-231, 5 μM each
[6] = Balb/c-nude mice, day 22, NCK 20 mg/kg, OSI 50 mg/kg, CRI 50 mg/kg

Row | Compound | level of pBADSer99/BAD [1] | Colon Length [2] [cm] | Relative Kidney Weight [2] [%] | PDX xenograft volume (USTC-0 PDX; USTC-0, 21 days treatment) | survival of PDX-bearing mice (USTC-0 PDX) | Median survival (USTC-0 PDX) [days] | PDX xenograft volume (USTC-1 PDX; USTC-1, 21 days treatment) | Median survival (USTC-1 PDX) [days] | phosphorylated and total proteins of MAPK and PI3K/AKT pathways ([3]; BT549, 1 μM) | phosphorylated and total proteins of MAPK and PI3K/AKT pathways ([3]; MDA-MB-231, 1 μM) | micro-metastatic nodules in lung (H&E) vs vehicle (MDA-MB-231 cells [4]; MDA-MB-231 metastasis model) | Colon Length (MDA-MB-231 xenografts) [cm] | 2D foci formation (MDA-MB-231 cells [5]) | further results
1 | Oc1ccccc1C(c1cccnc1)N1CCN(c2cccc(Cl)c2Cl)CC1 (stereo not shown) [NCK, 2-((4-(2,3-dichlorophenyl)piperazin-1-yl)(pyridin-3-yl)methyl) phenol] | significantly decreased the level of pBADSer99/BAD | 9.02±1.54 | 1.40±0.16 | significantly reduced the xenograft volume | markedly extended the survival | 42.0 | significantly reduced the xenograft volume | 34.5 | did not affect | did not affect | significantly reduced lung colonization | 9.55±0.84 | significantly attenuated the capacity for foci formation | inhibition of BAD phosphorylation at Ser99 (decreased pBADSer99/BAD ratio), effective concentration ([1]; vs DMSO): ≥ 0.1 μM; Relative Heart Weight [2]: 0.61±0.11%; Relative Liver Weight [2]: 4.98±0.21%; Relative Lung Weight [2]: 0.87±0.11%; Relative Spleen Weight [2]: 2.24±0.40%; reduction in xenograft burden vs vehicle (USTC-0 PDX; USTC-0, 21 days treatment): 66.0%; reduction in xenograft burden vs vehicle (USTC-1 PDX; USTC-1, 21 days treatment): 45.6%; Relative Heart Weight (MDA-MB-231 cells [4]; [6]): 0.66±0.08%; Relative Kidney Weight (MDA-MB-231 cells [4]; [6]): 1.72±0.18%; Relative Liver Weight (MDA-MB-231 cells [4]; [6]): 6.57±0.93%; Relative Lung Weight (MDA-MB-231 cells [4]; [6]): 0.82±0.05%; Relative Spleen Weight (MDA-MB-231 cells [4]; [6]): 0.75±0.13%; Relative Lung Weight (MDA-MB-231 cells [4]; MDA-MB-231 metastasis model, vehicle 0.19 ± 0.02 g): 0.17 ± 0.01 g; Relative Liver Weight (MDA-MB-231 xenografts): 5.70±0.38%
2 | O=C(Nc1ccc(OC(F)(F)F)cc1)c1sccc1NCc1ccnc2ccccc12 [OSI-930] | significantly decreased the level of pBADSer99/BAD | 9.33±1.26 | 1.34±0.02 | significantly reduced the xenograft volume | markedly extended the survival | 34.0 | significantly reduced the xenograft volume | 29.5 | significantly reduced the level of p-AKT (Ser473)/AKT | significantly inhibited the PI3K/AKT pathway | significantly reduced lung colonization | 9.34±0.67 | significantly attenuated the capacity for foci formation | 
